ChEMBL document CHEMBL1128692, “Peptidomimetic inhibitors of herpes simplex virus ribonucleotide reductase: a new class of antiviral agents” (J Med Chem, 1995)
Non-standard residues stand in square brackets, D forms with d. Residues, ends and D or L forms follow the SMILES beside them. *: point of attachment. Asp(3,3-(CH2)4) = N[C@H](C(=O)O)C1(C(=O)O)CCCC1; Dibenzylacetyl = O=C(C(Cc1ccccc1)Cc1ccccc1)*; Leu(γ-Me)ol = CC(C)(C)C[C@@H](CO)N*; Hydrocinnamoyl = O=C(CCc1ccccc1)*; tBuAla = CC(C)(C)C[C@H](N)C(=O)O; Butanoyl(2-Et) = CCC(CC)C(=O)*; Chg = N[C@H](C(=O)O)C1CCCCC1; Tle = CC(C)(C)[C@H](N)C(=O)O; NMeV = CN[C@H](C(=O)O)C(C)C; Leu(ol) = CC(C)C[C@H](N)CO; Pyrrolidide = C1CCN(*)C1; Abu = CC[C@H](N)C(=O)O

Assays:
[1] = biological target: Ribonucleotide reductase large subunit (Herpes simplex virus 1); test: In vitro inhibitory activity against HSV ribonucleotide reductase
[2] = biological target: Ribonucleotide reductase large subunit (Herpes simplex virus 1); test: Inhibitory activity against HSV-1 in baby hamster kidney cell
[3] = biological target: Ribonucleotide reductase large subunit (Herpes simplex virus 2); test: Inhibitory activity against HSV-2 in baby hamster kidney cell

IC50 [1]	EC50 [2]	EC50 [3]	SMILES
0.18 µM			CC(C)C[C@H](NC(=O)[C@H](CC(=O)O)NC(=O)[C@H](CC(N)=O)NC(=O)[C@@H](NC(=O)[C@@H](NC(=O)C(Cc1ccccc1)Cc1ccccc1)C(C)C)C(C)C)C(=O)O
	7 µM	6.5 µM	CC(C)[C@H](NC(=O)[C@H](C(C)C)N(C)C(=O)C(Cc1ccccc1)Cc1ccccc1)C(=O)N[C@@H](CC(=O)N1CCCC1)C(=O)N[C@H](C(=O)N[C@H](CO)CC(C)(C)C)C1(C(=O)O)CCCC1 (Dibenzylacetyl-[NMeV]VD(Pyrrolidide)[Asp(3,3-(CH2)4)]-{Leu(γ-Me)ol})
8.8 µM			CC(C)C[C@H](NC(=O)[C@H](CC(=O)O)NC(=O)[C@H](CC(=O)N1CCCC1)NC(=O)[C@@H](NC(=O)[C@H](C)NC(=O)CCc1ccccc1)C(C)C)C(=O)O (Hydrocinnamoyl-AVD(Pyrrolidide)DL-OH)
0.024 µM			CC(C)C[C@H](NC(=O)[C@H](CC(=O)O)NC(=O)[C@H](CC(=O)N1CCCC1)NC(=O)[C@@H](NC(=O)[C@@H](NC(=O)CCc1ccccc1)C(C)C)C(C)C)C(=O)O (Hydrocinnamoyl-VVD(Pyrrolidide)DL-OH)
0.022 µM			CC(C)C[C@H](NC(=O)[C@H](CC(=O)O)NC(=O)[C@H](CC(=O)N1CCCC1)NC(=O)[C@@H](NC(=O)[C@@H](NC(=O)CCc1ccccc1)C1CCCCC1)C(C)C)C(=O)O (Hydrocinnamoyl-[Chg]VD(Pyrrolidide)DL-OH)
11 µM			CC(C)C[C@H](NC(=O)[C@H](CC(=O)O)NC(=O)[C@H](CC(N)=O)NC(=O)[C@@H](NC(=O)[C@@H](NC(=O)[C@@H](C)Cc1ccccc1)C(C)C)C(C)C)C(=O)O
	3.1 µM	4.2 µM	CC(C)[C@@H](C(=O)N[C@H](C(=O)N[C@@H](CC(=O)N1CCCC1)C(=O)N[C@H](C(=O)N[C@H](CO)CC(C)(C)C)C1(C(=O)O)CCCC1)C(C)(C)C)N(C)C(=O)C(Cc1ccccc1)Cc1ccccc1 (Dibenzylacetyl-[NMeV][Tle]D(Pyrrolidide)[Asp(3,3-(CH2)4)]-{Leu(γ-Me)ol})
0.0075 µM			CC(C)C[C@H](NC(=O)[C@H](CC(=O)O)NC(=O)[C@H](CC(=O)N1CCCC1)NC(=O)[C@@H](NC(=O)[C@H](C(C)C)N(C)C(=O)CCc1ccccc1)C(C)C)C(=O)O (Hydrocinnamoyl-[NMeV]VD(Pyrrolidide)DL-OH)
0.88 µM			CC(=O)N[C@H](C(=O)N[C@H](C(=O)N[C@@H](CC(=O)N1CCCC1)C(=O)N[C@@H](CC(=O)O)C(=O)N[C@@H](CC(C)C)C(=O)O)C(C)C)C(C)C (Ac-VVD(Pyrrolidide)DL-OH)
0.34 µM			CC[C@H](NC(=O)CCc1ccccc1)C(=O)N[C@H](C(=O)N[C@@H](CC(=O)N1CCCC1)C(=O)N[C@@H](CC(=O)O)C(=O)N[C@@H](CC(C)C)C(=O)O)C(C)C (Hydrocinnamoyl-[Abu]VD(Pyrrolidide)DL-OH)
	30 µM	39 µM	CC(C)[C@@H](C(=O)N[C@H](C(=O)N[C@@H](CC(=O)N1CCCC1)C(=O)N[C@@H](CC(=O)O)C(=O)N[C@H](CO)CC(C)(C)C)C(C)(C)C)N(C)C(=O)C(Cc1ccccc1)Cc1ccccc1 (Dibenzylacetyl-[NMeV][Tle]D(Pyrrolidide)D-{Leu(γ-Me)ol})
	150 µM	150 µM	CC(C)[C@@H](C(=O)N[C@H](C(=O)N[C@@H](CC(N)=O)C(=O)N[C@H](C(=O)N[C@H](CO)CC(C)(C)C)C1(C(=O)O)CCCC1)C(C)(C)C)N(C)C(=O)C(Cc1ccccc1)Cc1ccccc1 (Dibenzylacetyl-[NMeV][Tle]N[Asp(3,3-(CH2)4)]-{Leu(γ-Me)ol})
0.86 µM			CCC(CC)C(=O)N[C@H](C(=O)N[C@@H](CC(=O)N1CCCC1)C(=O)N[C@@H](CC(=O)O)C(=O)N[C@@H](CC(C)C)C(=O)O)C(C)C ({Butanoyl(2-Et)}-VD(Pyrrolidide)DL-OH)
0.001 µM			CC(C)C[C@H](NC(=O)[C@@H](NC(=O)[C@H](CC(=O)N1CCCC1)NC(=O)[C@@H](NC(=O)[C@@H](NC(=O)CCc1ccccc1)C(C)C)C(C)C)C1(C(=O)O)CCCC1)C(=O)O (Hydrocinnamoyl-VVD(Pyrrolidide)[Asp(3,3-(CH2)4)]L-OH)
	12 µM	14 µM	CC(C)[C@H](NC(=O)C(Cc1ccccc1)Cc1ccccc1)C(=O)N[C@H](C(=O)N[C@@H](CC(=O)N1CCCC1)C(=O)N[C@H](C(=O)N[C@H](CO)CC(C)(C)C)C1(C(=O)O)CCCC1)C(C)(C)C (Dibenzylacetyl-V[Tle]D(Pyrrolidide)[Asp(3,3-(CH2)4)]-{Leu(γ-Me)ol})
	7.3 µM	7.3 µM	CC(C)C[C@@H](CO)NC(=O)[C@@H](NC(=O)[C@H](CC(=O)N1CCCC1)NC(=O)[C@@H](NC(=O)[C@H](C(C)C)N(C)C(=O)C(Cc1ccccc1)Cc1ccccc1)C(C)(C)C)C1(C(=O)O)CCCC1 (Dibenzylacetyl-[NMeV][Tle]D(Pyrrolidide)[Asp(3,3-(CH2)4)][Leu(ol)])
0.034 µM			CC(C)[C@H](NC(=O)CCc1ccccc1)C(=O)N[C@H](C(=O)N[C@@H](CC(=O)N1CCCC1)C(=O)N[C@@H](CC(=O)O)C(=O)N[C@H](CO)CC(C)(C)C)C(C)C (Hydrocinnamoyl-VVD(Pyrrolidide)D-{Leu(γ-Me)ol})
0.0007 µM			CC(C)C[C@H](NC(=O)[C@H](CC(=O)O)NC(=O)[C@H](CC(=O)N1CCCC1)NC(=O)[C@@H](NC(=O)[C@@H](NC(=O)C(Cc1ccccc1)Cc1ccccc1)C(C)C)C(C)C)C(=O)O (Dibenzylacetyl-VVD(Pyrrolidide)DL-OH)
0.036 µM			CC(C)C[C@H](NC(=O)[C@H](CC(=O)O)NC(=O)[C@H](CC(=O)N1CCCC1)NC(=O)[C@@H](NC(=O)[C@@H](NC(=O)CCc1ccccc1)C(C)(C)C)C(C)C)C(=O)O (Hydrocinnamoyl-[Tle]VD(Pyrrolidide)DL-OH)
0.86 µM			CC(C)C[C@H](NC(=O)[C@H](CC(=O)O)NC(=O)[C@H](CC(N)=O)NC(=O)[C@@H](NC(=O)[C@@H](NC(=O)[C@H](C)Cc1ccccc1)C(C)C)C(C)C)C(=O)O
0.0064 µM			CCC(CC)C(=O)N[C@H](C(=O)N[C@@H](CC(=O)N1CCCC1)C(=O)N[C@H](C(=O)N[C@@H](CC(C)C)C(=O)O)C1(C(=O)O)CC=CC1)C(C)(C)C
0.004 µM			CC(C)C[C@H](NC(=O)[C@H](CC(=O)O)NC(=O)[C@H](CC(=O)N1CCCC1)NC(=O)[C@@H](NC(=O)[C@@H](NC(=O)CCc1ccccc1)C(C)C)C(C)(C)C)C(=O)O (Hydrocinnamoyl-V[Tle]D(Pyrrolidide)DL-OH)
4 µM			CC(C)C[C@H](NC(=O)[C@H](CC(=O)O)NC(=O)[C@H](CC(N)=O)NC(=O)[C@@H](NC(=O)[C@@H](NC(=O)CCc1ccccc1)C(C)C)C(C)C)C(=O)O
0.005 µM			CC(C)[C@H](NC(=O)CCc1ccccc1)C(=O)N[C@H](C(=O)N[C@@H](CC(=O)N1CCCC1)C(=O)N[C@@H](CC(=O)O)C(=O)N[C@@H](CC(C)(C)C)C(=O)O)C(C)C (Hydrocinnamoyl-VVD(Pyrrolidide)D[tBuAla]-OH)
	52 µM	35 µM	CC(C)[C@@H](C(=O)N[C@H](C(=O)N[C@@H](CC(=O)N1CCCC1)C(=O)N[C@H](C(=O)N[C@H](CO)CC(C)(C)C)C1(C(=O)O)CCCC1)C(C)(C)C)N(C)C(=O)CCc1ccccc1 (Hydrocinnamoyl-[NMeV][Tle]D(Pyrrolidide)[Asp(3,3-(CH2)4)]-{Leu(γ-Me)ol})
	35 µM	30 µM	CC(C)[C@@H](C(=O)N[C@H](C(=O)N[C@@H](CC(=O)N1CCCC1)C(=O)N[C@H](C(=O)N[C@@H](CC(C)(C)C)C(=O)O)C1(C(=O)O)CCCC1)C(C)(C)C)N(C)C(=O)C(Cc1ccccc1)Cc1ccccc1 (Dibenzylacetyl-[NMeV][Tle]D(Pyrrolidide)[Asp(3,3-(CH2)4)][tBuAla]-OH)
115 µM			CC(C)C[C@H](NC(=O)[C@H](CC(=O)O)NC(=O)[C@H](CC(=O)N1CCCC1)NC(=O)[C@@H](NC(=O)CNC(=O)CCc1ccccc1)C(C)C)C(=O)O (Hydrocinnamoyl-GVD(Pyrrolidide)DL-OH)
0.022 µM			CC(C)C[C@H](NC(=O)[C@H](CC(=O)O)NC(=O)[C@H](CC(N)=O)NC(=O)[C@@H](NC(=O)[C@H](C(C)C)N(C)C(=O)C(Cc1ccccc1)Cc1ccccc1)C(C)C)C(=O)O
0.061 µM			CC[C@H](C)[C@H](NC(=O)CCc1ccccc1)C(=O)N[C@H](C(=O)N[C@@H](CC(=O)N1CCCC1)C(=O)N[C@@H](CC(=O)O)C(=O)N[C@@H](CC(C)C)C(=O)O)C(C)C (Hydrocinnamoyl-IVD(Pyrrolidide)DL-OH)
